From PubChem BioAssay AID328 (DTP/NCI, 2004)
Where “and” joins values, the source holds several entries; their conditions need not be identical. Identical values can stand only once. Toxic doses and inconclusive results are not listed. How the source made its calls: active means survival T/C of 150% or more; inactive means T/C below 125% in these data. Residues, ends and D or L forms follow the SMILES beside them. *: point of attachment. Cbz = O=C(OCc1ccccc1)*; OtBu = CC(C)(C)O*

System: BDF1 mice, P388 leukemia ip, median survival T/C
Experiment: NCI In Vivo Anticancer Drug Screen. Data for tumor model P388 Leukemia (intraperitoneal) in B6D2F1 (BDF1) mice
Details: endpoint: median survival time, higher = longer survival
Summary of the method: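 Compound-treated tumour-bearing mice were compared with vehicle-treated controls. Survival was recorded, and the value is the treated-group measurement divided by the control-group measurement (T/C).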

[1] = dose: 25.0 mg/kg/injection, schedule: Q01DX009 (ip), vehicle: saline with Tween-80
[2] = dose: 25.0 mg/kg/injection, schedule: Q04DX003 (ip), vehicle: saline with Tween-80
[3] = dose: 50.0 mg/kg/injection, schedule: Q01DX009 (ip), vehicle: saline with Tween-80
[4] = dose: 50.0 mg/kg/injection, schedule: Q04DX003 (ip), vehicle: saline with Tween-80
[5] = dose: 100.0 mg/kg/injection, schedule: Q01DX009 (ip), vehicle: saline with Tween-80
[6] = dose: 100.0 mg/kg/injection, schedule: Q04DX003 (ip), vehicle: saline with Tween-80
[7] = dose: 200.0 mg/kg/injection, schedule: Q01DX009 (ip), vehicle: saline with Tween-80
[8] = dose: 200.0 mg/kg/injection, schedule: Q04DX003 (ip), vehicle: saline with Tween-80
[9] = dose: 400.0 mg/kg/injection, schedule: Q01DX009 (ip), vehicle: saline with Tween-80
[10] = dose: 400.0 mg/kg/injection, schedule: Q04DX003 (ip), vehicle: saline with Tween-80
[11] = dose: 12.5 mg/kg/injection, schedule: Q01DX009 (ip), vehicle: saline with Tween-80

Measured: T/C

Clc1nc(Cl)c(Cl)nc1Cl
inactive: [1] 100 % of control | [2] 97 % of control | [3] 97 % of control | [4] 113 % of control | [5] 113 % of control | [6] 108 % of control | [7] 113 % of control | [8] 97 % of control | [9] 106 % of control | [10] 106 % of control

CCOc1ccc(Br)cc1/C=N\N=C\c1cc(Br)ccc1OCC
inactive: dose: 6.0 mg/kg/injection, schedule: Q01DX001 (ip), vehicle: Klucel (hydroxypropylcellulose) (HPC) 87 % of control | dose: 12.0 mg/kg/injection, schedule: Q01DX001 (ip), vehicle: Klucel (hydroxypropylcellulose) (HPC) 95 % of control | dose: 25.0 mg/kg/injection, schedule: Q01DX001 (ip), vehicle: Klucel (hydroxypropylcellulose) (HPC) 86 % of control

C[C@@H]1C[C@@]2(C)[C@@H](CC[C@@H]3[C@@H]2CC[C@]2(C)[C@@H](O)CC[C@@H]32)CC1=O
inactive: dose: 6.25 mg/kg/injection, schedule: Q01DX009 (ip), vehicle: Klucel (hydroxypropylcellulose) (HPC) 109 % of control | dose: 12.5 mg/kg/injection, schedule: Q01DX009 (ip), vehicle: Klucel (hydroxypropylcellulose) (HPC) 109 % of control | dose: 25.0 mg/kg/injection, schedule: Q01DX009 (ip), vehicle: Klucel (hydroxypropylcellulose) (HPC) 109 % of control

CCCCCCCCCCCS(=O)(=O)C(CCOS(C)(=O)=O)COS(C)(=O)=O (configuration not stated)
inactive: dose: 100.0 mg/kg/injection, schedule: Q04DX003 (ip), vehicle: Klucel (hydroxypropylcellulose) (HPC) 95 % of control | dose: 200.0 mg/kg/injection, schedule: Q04DX003 (ip), vehicle: Klucel (hydroxypropylcellulose) (HPC) 100 % of control | dose: 400.0 mg/kg/injection, schedule: Q04DX003 (ip), vehicle: Klucel (hydroxypropylcellulose) (HPC) 100 % of control

COc1cc(C(=O)OC2CC34CCNC35CC(OC5(OC)C2O)c2cc3c(cc24)OCO3)ccc1O (configuration not stated)
inactive: dose: 0.5 mg/kg/injection, schedule: Q01DX010 (ip), vehicle: saline 100 % of control | dose: 1.0 mg/kg/injection, schedule: Q01DX010 (ip), vehicle: carboxymethylcellulose (CMC) 86 % of control | dose: 1.0 mg/kg/injection, schedule: Q01DX010 (ip), vehicle: saline 118 % of control | dose: 2.0 mg/kg/injection, schedule: Q01DX010 (ip), vehicle: saline 95 % of control

Cc1ccc(NS(=O)(=O)c2ccccc2)nc1
inactive: [6] 112 % of control | [8] 116 % of control | [10] 96 % of control

O=[N+]([O-])c1ccc(Sc2ccc(Cl)cc2)c2nonc12
inactive: [3] 92 % of control

S=c1[nH]cc2cnccn12
inactive: [1] 110 % of control | [3] 115 % of control | [6] 100 % of control | [7] 105 % of control | [8] 110 % of control

CO[C@H](C)[C@](O)(C(=O)OCC1=CCN2CC[C@@H](O)[C@H]12)C(C)C
inactive: dose: 25.0 mg/kg/injection, schedule: Q01DX010 (ip), vehicle: carboxymethylcellulose (CMC) 111 % of control | dose: 50.0 mg/kg/injection, schedule: Q01DX010 (ip), vehicle: carboxymethylcellulose (CMC) 111 % of control | dose: 100.0 mg/kg/injection, schedule: Q01DX010 (ip), vehicle: carboxymethylcellulose (CMC) 111 % of control

N#Cc1ccc(C[n+]2cccc3c([N+](=O)[O-])cccc32)cc1
inactive: [11] 103 % of control | [1] 108 % of control | [3] 118 % of control

COc1ccc2nc3cc(Cl)ccc3c(Cl)c2c1
inactive: [5] 95 % of control | [6] 109 % of control | [7] 95 % of control | [8] 100 % of control | [9] 95 % of control | [10] 109 % of control

CCOC(=O)c1ccc2c3c([nH]c2c1C)-c1ccccc1CC3
inactive: [3] 120 % of control | [5] 111 % of control | [7] 118 % of control

O=C(Cc1ccccc1)Cc1ccccc1
inactive: dose: 25.0 mg/kg/injection, schedule: Q01DX009 (ip), vehicle: water 99 % of control | dose: 50.0 mg/kg/injection, schedule: Q01DX009 (ip), vehicle: water 99 % of control | dose: 100.0 mg/kg/injection, schedule: Q01DX009 (ip), vehicle: water 90 % of control | dose: 200.0 mg/kg/injection, schedule: Q01DX009 (ip), vehicle: water 97 % of control | dose: 200.0 mg/kg/injection, schedule: Q04DX003 (ip), vehicle: water 97 % of control and 100 % of control | dose: 300.0 mg/kg/injection, schedule: Q04DX003 (ip), vehicle: water 89 % of control and 97 % of control | dose: 400.0 mg/kg/injection, schedule: Q01DX009 (ip), vehicle: water 109 % of control | dose: 400.0 mg/kg/injection, schedule: Q04DX003 (ip), vehicle: water 93 % of control and 100 % of control | dose: 500.0 mg/kg/injection, schedule: Q04DX003 (ip), vehicle: water 108 % of control | dose: 600.0 mg/kg/injection, schedule: Q04DX003 (ip), vehicle: water 98 % of control

CCOC(=O)/C=C(\C)SC1=CC(=O)C=CC1=O
inactive: dose: 100.0 mg/kg/injection, schedule: Q01DX001 (ip), vehicle: saline with Tween-80 106 % of control | dose: 200.0 mg/kg/injection, schedule: Q01DX001 (ip), vehicle: saline with Tween-80 100 % of control

COC(=O)C(CCC(=O)OC(C)(C)C)NC(=O)C(NC(=O)OCc1ccccc1)C(C)C (stereo not drawn) (Cbz-Val-Glu(OtBu)-OMe; configuration not given here)
inactive: [5] 100 % of control | [7] 100 % of control | [9] 95 % of control

COC1OC(COC(=O)c2ccccc2)C(OC(=O)c2ccccc2)C(OC(=O)c2ccccc2)C1OC(=O)c1ccccc1 (configuration not stated)
inactive: [6] 91 % of control | [8] 91 % of control | [10] 91 % of control

N#Cc1cnccn1
inactive: dose: 100.0 mg/kg/injection, schedule: Q01DX009 (ip), vehicle: saline 100 % of control | dose: 200.0 mg/kg/injection, schedule: Q01DX009 (ip), vehicle: saline 100 % of control | dose: 400.0 mg/kg/injection, schedule: Q01DX009 (ip), vehicle: saline 87 % of control

CCCCCCOC(=O)/C=C(/C)OCCCCCC
inactive: [3] 100 % of control | dose: 87.5 mg/kg/injection, schedule: Q01DX009 (ip), vehicle: saline with Tween-80 113 % of control | [5] 105 % of control | dose: 100.0 mg/kg/injection, schedule: Q04DX003 (ip), vehicle: saline 108 % of control | dose: 175.0 mg/kg/injection, schedule: Q01DX009 (ip), vehicle: saline with Tween-80 100 % of control | dose: 200.0 mg/kg/injection, schedule: Q04DX003 (ip), vehicle: saline 104 % of control | dose: 265.0 mg/kg/injection, schedule: Q01DX009 (ip), vehicle: saline with Tween-80 113 % of control | [9] 118 % of control | dose: 400.0 mg/kg/injection, schedule: Q04DX003 (ip), vehicle: saline 108 % of control

CCCCCCCN(CCCCCCC)CC(O)c1cc2ccccc2c2cnccc12 (configuration not stated)
inactive: dose: 75.0 mg/kg/injection, schedule: Q04DX003 (ip), vehicle: saline with Tween-80 104 % of control | dose: 150.0 mg/kg/injection, schedule: Q04DX003 (ip), vehicle: saline with Tween-80 113 % of control | dose: 300.0 mg/kg/injection, schedule: Q04DX003 (ip), vehicle: saline with Tween-80 95 % of control

O=c1c(Cl)c2cc3c(cc2c2ccccc12)nc1ccccc1n3-c1ccccc1
inactive: dose: 12.5 mg/kg/injection, schedule: Q01DX001 (ip), vehicle: saline with Tween-80 88 % of control | dose: 25.0 mg/kg/injection, schedule: Q01DX001 (ip), vehicle: saline with Tween-80 88 % of control

O=c1nc(Oc2ccccc2)nc2c3ccccc3ccn12
inactive: [11] 118 % of control | [1] 102 % of control | [3] 112 % of control | [5] 114 % of control and 119 % of control | [7] 89 % of control

C1CO[Te]2(O1)OCCO2
inactive: dose: 12.5 mg/kg/injection, schedule: Q04DX003 (ip), vehicle: saline with Tween-80 97 % of control | [2] 88 % of control | [4] 88 % of control

CC(=O)C(C)(NCc1ccccc1)c1ccccc1 (configuration not stated)
inactive: dose: 45.0 mg/kg/injection, schedule: Q01DX001 (ip), vehicle: saline 104 % of control | dose: 85.0 mg/kg/injection, schedule: Q01DX001 (ip), vehicle: saline 108 % of control and 116 % of control | dose: 100.0 mg/kg/injection, schedule: Q01DX001 (ip), vehicle: saline 109 % of control | dose: 135.0 mg/kg/injection, schedule: Q01DX001 (ip), vehicle: saline 120 % of control | dose: 200.0 mg/kg/injection, schedule: Q01DX001 (ip), vehicle: saline 104 % of control | dose: 300.0 mg/kg/injection, schedule: Q01DX001 (ip), vehicle: saline 100 % of control | dose: 400.0 mg/kg/injection, schedule: Q01DX001 (ip), vehicle: saline 104 % of control
